According to patent publication US20240158383A1, “RIBONUCLEOTIDE REDUCTASE (RNR) INHIBITORS AND USES THEREOF” (Boundless Bio, Inc., priority 2021, published 2024):

How the values were obtained:
RNR (RNR1:RNR2) = RNR (RNR1:RNR2) (Homo sapiens (Human), UniProt P23921+P31350); assay: RNR enzyme activity, rapid-fire mass spectrometry (RFMS) assay; type: biochemical; conditions: [RNR] 50 nM, 1:1 RNR1:RNR2, [CDP] 5 μM, [ATP] 1 mM, 37° C., 45 min
Procedure: A rapid-fire mass spectrometry (RFMS) assay was used to assess RNR enzyme activity using a 384 well plate and a robotic platform.
The plate layout included two validated reference compounds (Triapine (3-AP) and Hydroxyurea (HU)): • A dose response in duplicate; top concentration: 5 μM (3-AP) and 250 μM (HU), semi-log • dilutions. • Spike wells in triplicate randomly spotted at four concentrations: • 250 μM, 100 μM, 30 μM and 2 μM for HU • 5 μM, 2 μM, 0.6 μM and 0.04 μM for 3-AP
First, the multidrop pipes were saturated for 30 minutes with enzymatic solution. Then 30 μL of Stop solution was distributed in column 24. Next, 15 μL of enzyme was distributed in column 1 to 24. Next, a pre-incubation step of 15 minutes at room temperature occurred, followed by distribution of 15 μL of substrate solution (column 1 to 24). Next, the plate was incubated for 45 minutes at 37° C. 30 μL of Stop solution was distributed to columns 1 to 23.
The final parameters for the enzyme reactions were: • Incubation: 37° C., 45 min • [CDP]: 5 μM; [ATP]: 1 mM; [NADPH]: No • [RNR]final: 50 nM with 1:1 (RNR1:RNR2) ratio • Final volume: 30 μL • Stop solution: 6% HCOOH containing 2 μM of 15
The compounds were screened at concentrations from 10 nM to 30 μM.

[1] = system: pCHK1 (S345) in Colo320 DM cells; assay: CHK1 cellular activity (phospho-CHK1 AlphaLisa); type: cell-based, human; conditions: compound overnight (approximately 16 hours)
Procedure: Phospho-CHK1 cellular activity was measured as a marker of replication stress which is a consequence of RNR inhibition.
Colo320 DM cells (ATCC #CCL-220, derived from human colorectal adenocarcinoma, Dukes' type C) were seeded on a 96-well cell culture treated assay plate at a density of 50,000 cells/well in 200 μL of RPMI-1640 media supplemented with 10% Fetal Bovine Serum and incubated at 37 degrees Celsius overnight. The following day, test compound dilutions were added directly to the plated cells by a Tecan digital dispenser to a final DMSO concentration of <0.5% and incubated at 37 degrees Celsius overnight (approximately 16 hours). The following day all culture media is removed from the cells. 75 μL of 1× AlphaLisa lysis buffer is added to each well and plates are agitated on a shaker for 30 minutes at room temperature. The lysis of cells and detection of pCHK1 (S345) are performed with reagents contained within the AlphaLisa Sure Fire assay kit (Perkin Elmer #ALSU-PCHK1-A) according to the manufacturer's instructions. 10 μL of each lysate was then transferred to a white, 384-well assay plate (Perkin Elmer #6008280). 5 μL of Acceptor mix was then added to each well of lysate in the white, 384-well assay plate and incubated in the dark at room temperature for 60 minutes. 5 μL of Donor mix was then added to each well of the white, 384-well assay plate in subdued light and incubated at room temperature for 60 minutes. Plates are read on an Alpha Technology-compatible plate reader using standard AlphaLisa settings.

Sequence of RNR (RNR1:RNR2) (P23921 whole entry): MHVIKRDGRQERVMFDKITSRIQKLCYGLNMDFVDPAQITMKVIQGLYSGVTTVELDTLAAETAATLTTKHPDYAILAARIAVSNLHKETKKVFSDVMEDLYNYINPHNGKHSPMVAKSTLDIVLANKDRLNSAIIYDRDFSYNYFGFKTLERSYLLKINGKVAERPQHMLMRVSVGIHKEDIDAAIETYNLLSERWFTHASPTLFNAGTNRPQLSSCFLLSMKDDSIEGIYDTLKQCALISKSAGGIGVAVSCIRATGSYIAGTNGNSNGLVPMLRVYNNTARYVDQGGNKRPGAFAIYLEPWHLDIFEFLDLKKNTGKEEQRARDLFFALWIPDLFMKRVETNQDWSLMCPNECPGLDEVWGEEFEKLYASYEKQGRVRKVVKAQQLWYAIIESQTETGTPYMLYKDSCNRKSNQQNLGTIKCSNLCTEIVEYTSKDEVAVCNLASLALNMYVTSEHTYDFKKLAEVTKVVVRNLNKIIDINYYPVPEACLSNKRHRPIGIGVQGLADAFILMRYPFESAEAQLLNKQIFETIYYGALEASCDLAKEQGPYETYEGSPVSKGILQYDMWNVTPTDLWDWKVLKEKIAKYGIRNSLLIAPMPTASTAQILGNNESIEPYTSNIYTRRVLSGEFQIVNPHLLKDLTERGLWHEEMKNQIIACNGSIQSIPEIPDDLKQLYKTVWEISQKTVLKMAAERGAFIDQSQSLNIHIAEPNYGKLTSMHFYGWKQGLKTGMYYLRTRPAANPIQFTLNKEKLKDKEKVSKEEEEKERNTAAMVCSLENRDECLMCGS
Sequence of RNR (RNR1:RNR2) (P31350 whole entry): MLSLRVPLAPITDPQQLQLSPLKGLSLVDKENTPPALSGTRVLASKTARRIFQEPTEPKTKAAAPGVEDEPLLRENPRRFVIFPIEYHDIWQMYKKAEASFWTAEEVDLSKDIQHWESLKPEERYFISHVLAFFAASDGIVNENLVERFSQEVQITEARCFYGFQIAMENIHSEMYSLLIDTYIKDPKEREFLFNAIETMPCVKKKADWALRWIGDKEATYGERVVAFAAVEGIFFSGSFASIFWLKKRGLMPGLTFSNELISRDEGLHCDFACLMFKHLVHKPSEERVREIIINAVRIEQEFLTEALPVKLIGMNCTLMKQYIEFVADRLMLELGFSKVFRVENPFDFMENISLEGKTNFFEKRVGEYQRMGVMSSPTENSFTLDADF

| IC50 (RNR (RNR1:RNR2)) [µM] | IC50 ([1]; Homo sapiens, COLO 320DM, 16 h) [µM] | IC50 [1] [µM] | SMILES |
| --- | --- | --- | --- |
| 0.1 to 1 | 50 to 100 | – | Cc1ccc(F)c([C@@H](C)[C@H](NS(=O)(=O)c2ccc(Cl)c(C(C)(O)C(=O)N(C)C)c2)c2nn[nH]n2)c1C (stereo partly drawn) [Example 59, 2-(2-chloro-5-(N-((1S,2R)-2-(6-fluoro-2,3-dimethylphenyl)-1-(2H-tetrazol-5-yl)propyl)sulfamoyl)phenyl)-2-hydroxy-N,N-dimethylpropanamide] |
| ≤ 0.1 | 10 to 30 | – | [2H]C([2H])([2H])Oc1cc(Cl)ccc1S(=O)(=O)N[C@H](c1nn[nH]n1)[C@H](C)c1c(F)ccc(C)c1C [Example 54, 4-chloro-N-((1S,2R)-2-(6-fluoro-2,3-dimethylphenyl)-1-(2H-tetrazol-5-yl)propyl)-2-(methoxy-d3)benzenesulfonamide] |
| ≤ 0.1 | 50 to 100 | – | Cc1ccc(F)c([C@@H](C)[C@H](NS(=O)(=O)c2ncc(Br)cc2C(N)=O)c2nn[nH]n2)c1C (racemic) [Example 15, rac-5-bromo-2-(N-((1R,2S)-2-(6-fluoro-2,3-dimethylphenyl)-1-(2H-tetrazol-5-yl)propyl)sulfamoyl)nicotinamide] |
| 1 to 5 | 50 to 100 | – | Cc1cc(S(=O)(=O)N[C@H](c2nn[nH]n2)[C@H](C)c2c(F)ccc(C)c2C)c(C)cc1Cl [Example 31, 4-chloro-N-((1S,2R)-2-(6-fluoro-2,3-dimethylphenyl)-1-(2H-tetrazol-5-yl)propyl)-2,5-dimethylbenzenesulfonamide] |
| ≤ 0.1 | 10 to 30 | – | Cc1ccc(F)c([C@@H](C)[C@H](NS(=O)(=O)c2ccc(Cl)c3c2OCC[C@]3(C)O)c2nn[nH]n2)c1C (single isomer, unassigned) [Example 3] |
| ≤ 0.1 | 10 to 30 | – | COc1nc(Cl)ccc1S(=O)(=O)N[C@H](c1nn[nH]n1)[C@H](C)c1c(F)ccc(C)c1C [Example 62, 6-chloro-N-((1S,2R)-2-(6-fluoro-2,3-dimethylphenyl)-1-(2H-tetrazol-5-yl)propyl)-2-methoxypyridine-3-sulfonamide] |
| 0.1 to 1 | 50 to 100 | – | Cc1ccc(F)c([C@@H](C)[C@H](NS(=O)(=O)c2ccc(Cl)c([C@@H](O)C(=O)N(C)C)c2)c2nn[nH]n2)c1C [Example 57, (R)-2-(2-chloro-5-(N-((1S,2R)-2-(6-fluoro-2,3-dimethylphenyl)-1-(2H-tetrazol-5-yl)propyl)sulfamoyl)phenyl)-2-hydroxy-N,N-dimethylacetamide] |
| 0.1 to 1 | 10 to 30 | – | Cc1ccc(F)c([C@@H](C)[C@H](NS(=O)(=O)c2ccc(Cl)cc2Cl)c2nn[nH]n2)c1C [Example 39, 2,4-dichloro-N-((1S,2R)-2-(6-fluoro-2,3-dimethylphenyl)-1-(2H-tetrazol-5-yl)propyl)benzenesulfonamide] |
| 1 to 5 | 50 to 100 | – | Cc1ccc(F)c([C@@H](C)[C@H](NS(=O)(=O)C2CCCCC2)c2nn[nH]n2)c1C [Example 8, N-((1S,4S)-2-(6-fluoro-2,3-dimethylphenyl)-1-(2H-tetraozl-5-yl)propyl)cyclohexanesulfonamide] |
| ≤ 0.1 | 50 to 100 | – | Cc1ccc(F)c([C@@H](C)[C@H](NS(=O)(=O)c2ccc(Cl)cc2C(N)=O)c2nn[nH]n2)c1C [Example 2, 5-chloro-2-(N-((1S,2R)-2-(6-fluoro-2,3-dimethylphenyl)-1-(2H-tetrazol-5-yl)propyl)sulfamoyl)benzamide] |
| ≤ 0.1 | – | 10 to 30 | Cc1ccc(F)c([C@@H](C)[C@H](NS(=O)(=O)c2ccc(Cl)c3c2OCC[C@@]3(C)O)c2nn[nH]n2)c1C (single isomer, unassigned) [Example 4] |
| ≤ 0.1 | 10 to 30 | – | Cc1ccc(F)c([C@@H](C)[C@H](NS(=O)(=O)c2ccc(Cl)cc2OC(F)(F)F)c2nn[nH]n2)c1C [Example 30, 4-chloro-N-((1S,2R)-2-(6-fluoro-2,3-dimethylphenyl)-1-(2H-tetrazol-5-yl)propyl)-2-(trifluromethoxy)benzenesulfonamdie] |
| ≤ 0.1 | ≤ 10 | – | Cc1ccc(F)c([C@@H](C)[C@H](NS(=O)(=O)c2ccc(Cl)cc2N(C)C)c2nn[nH]n2)c1C (racemic) [Example 71, rac-4-chloro-2-(dimethylamino)-N-((1R,2S)-2-(6-fluoro-2,3-dimethylphenyl)-1-(2H-tetrazol-5-yl)propyl)benzenesulfonamide] |
| 0.1 to 1 | 50 to 100 | – | Cc1ccc(F)c([C@@H](C)[C@H](NS(=O)(=O)c2ccc(Cl)cc2CC(N)=O)c2nn[nH]n2)c1C [Example 23, 2-(5-chloro-2-(N-((1S,2R)-2-(6-fluoro-2,3-dimethylphenyl)-1-(2H-tetrazol-5-yl)propyl)sulfamoyl)phenyl)acetamide] |
| 1 to 5 | 50 to 100 | – | Cc1ccc(F)c([C@@H](C)[C@H](NS(=O)(=O)c2cc(Cl)ccc2F)c2nn[nH]n2)c1C [Example 44] |
| ≤ 0.1 | ≤ 10 | – | Cc1ccc(F)c([C@@H](C)[C@H](NS(=O)(=O)c2ccc(Cl)c3c2OCCN3C)c2nn[nH]n2)c1C [Example 29, 5-chloro-N-((1S,2R)-2-(6-fluoro-2,3-dimethylphenyl)-1-(2H-tetrazol-5-yl)propyl)-4-methyl-3,4-dihydro-2H-benzo[b][1,4]oxazine-8-sulfonamide] |
| 1 to 5 | 50 to 100 | – | Cc1ccc(F)c([C@@H](C)[C@H](NS(=O)(=O)c2cc(Cl)c(F)cc2F)c2nn[nH]n2)c1C [Example 36, 5-chloro-2,4-difluoro-N-((1S,2R)-2-(6-fluoro-2,3-dimethylphenyl)-1-(2H-tetrazol-5-yl)propyl)benzenesulfonamide] |
| 0.1 to 1 | 10 to 30 | – | Cc1ccc(F)c([C@@H](C)[C@H](NS(=O)(=O)c2ccc(Cl)cc2CC(=O)N2CCCCC2)c2nn[nH]n2)c1C [Example 24, 4-chloro-N-((1S,2R)-2-(6-fluoro-2,3-dimethylphenyl)-1-(2H-tetrazol-5-yl)propyl)-2-(2-oxo-2-(piperidin-1-yl)ethyl)benzenesulfonamide] |
| 0.1 to 1 | 10 to 30 | – | Cc1ccc(F)c([C@@H](C)[C@H](NS(=O)(=O)c2ccc(Cl)c(F)c2)c2nn[nH]n2)c1C [Example 49] |
| 0.1 to 1 | 50 to 100 | – | Cc1ccc(F)c([C@@H](C)[C@H](NS(=O)(=O)c2c(F)cc(Cl)cc2F)c2nn[nH]n2)c1C [Example 56, 4-chloro-2,6-difluoro-N-((1S,2R)-2-(6-fluoro-2,3-dimethylphenyl)-1-(2H-tetrazol-5-yl)propyl)benzenesulfonamide] |
| 1 to 5 | 50 to 100 | – | Cc1ccc(F)c([C@@H](C)[C@H](NS(=O)(=O)c2ccc(F)c(C#N)c2)c2nn[nH]n2)c1C [Example 37, 3-cyano-4-fluoro-N-((1S,2R)-2-(6-fluoro-2,3-dimethylphenyl)-1-(2H-tetrazol-5-yl)propyl)benzensulfonamide] |
| ≤ 0.1 | ≤ 10 | – | Cc1ccc(F)c([C@@H](C)[C@H](NS(=O)(=O)c2ccc(Cl)c3c2OCCC3)c2nn[nH]n2)c1C [Example 74, 5-chloro-N-((1S,2R)-2-(6-fluoro-2,3-dimethylphenyl)-1-(2H-tetrazol-5-yl)propyl)chromane-8-sulfonamide] |
| ≤ 0.1 | – | 30 to 50 | Cc1ccc(F)c([C@@H](C)[C@H](NS(=O)(=O)c2ccc(Cl)c3c2OCC[C@@]3(C)O)c2nn[nH]n2)c1C [Example 7, 5-((1S,2R)-1-(((R)-5-chloro-4-hydroxy-4-methylchromane)-8-sulfonamido)-2-(6-fluoro-2,3-dimethylphenyl)propyl)tetrazol-2-ide] |
| 0.1 to 1 | 50 to 100 | – | Cc1ccc(F)c([C@@H](C)[C@H](NS(=O)(=O)c2ccc(Cl)c3nonc23)c2nn[nH]n2)c1C [Example 46] |
| 0.1 to 1 | 10 to 30 | – | Cc1cc(S(=O)(=O)N[C@H](c2nn[nH]n2)[C@H](C)c2c(F)ccc(C)c2C)ccc1Cl [Example 48] |
